Measurements: patent US9340577B2, “HLA binding motifs and peptides and their uses” (priority 1992, dated 2016)
Like-named read-outs stand apart in the source and are kept apart here. No end group written: not given here.

Assays:
Assay in all cases: biochemical
DRB1*1201 = DRB1*1201 (Homo sapiens, UniProt P01903+P01911, A100R/A169T/D57E/D86V/F55L/H45Y/K41T/L162R/M171V/P40S/Q125H/Q178H/Q39Y/Q99D/R42G/S66L/T262R/V114A/V67L/W38E/Y59H/Y61H/Y89S); format: binding
DRB1*1101 = DRB1*1101 (Homo sapiens, UniProt P01903+P01911, A100R/A169T/A87E/I96F/K41T/L162R/M171V/P40S/Q125H/Q178H/Q39Y/Q99D/R42S/S66Y/T262R/V115G/W38E)
Sequence of DRB1*1101 (P01903 26-254 limits assumed, other chains not shown): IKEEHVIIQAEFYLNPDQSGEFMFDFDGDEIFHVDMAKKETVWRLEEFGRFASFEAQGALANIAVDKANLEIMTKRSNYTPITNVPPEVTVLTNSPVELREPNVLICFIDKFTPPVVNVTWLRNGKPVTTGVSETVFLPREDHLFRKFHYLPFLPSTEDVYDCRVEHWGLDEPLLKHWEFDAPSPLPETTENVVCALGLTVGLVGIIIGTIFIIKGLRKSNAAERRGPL

DRB1*0405 = DRB1*0405 (Homo sapiens, UniProt P01903+P01911, A100R/A169T/D86S/F76Y/I96L/K127E/L162R/M171V/N62H/P40V/Q125Y/R42H/S133A/S149N/S66Y/V115G/V209L/W38E); format: binding
DRB4*0101 = DRB4*0101 (Homo sapiens, UniProt P01903+P13762, G164S); format: binding
DRB1*0901 = DRB1*0901 (Homo sapiens, UniProt P01903+P01911, A100R/A103E/D57H/D86V/F55Y/F60I/F76Y/I96F/K127E/L162R/M171V/P40D/Q125H/Q99R/R33Q/R42F/S133A/S66N/T210M/V115G/W38K/Y107V/Y59G/Y89S); format: binding
DRB1*1501 = DRB1*1501 (Homo sapiens, UniProt P01903+P01911); format: binding
DR7 (DRB1*0701) = DR7 (DRB1*0701) (Homo sapiens, UniProt P01903+P01911, A100R/A102G/A103Q/D57E/D86V/E43K/F76Y/K127E/L162R/M171V/P40G/Q125H/Q99D/R33Q/R42Y/R54Q/S133A/S66F/T210M/V115G/Y107V/Y59L/Y89S); format: binding
DR4w4 (DRB1*0401) = DR4w4 (DRB1*0401) (Homo sapiens, UniProt P01903+P01911, A100K/A169T/F76Y/I96L/K127E/L162R/M171V/N62H/P40V/Q125Y/R42H/S133A/S149N/S66Y/V115G/V209L/W38E); format: binding
DR1 (DRB1*0101) = DR1 (DRB1*0101) (Homo sapiens, UniProt P01903+P01911, A100R/D57E/F55L/F60I/F76Y/I96L/L162R/M171V/P40L/Q125E/R42F/V115G/Y59C); format: binding
DRB5*0101 = DRB5*0101 (Homo sapiens, UniProt P01903+Q30154)
DRB1*0802 = DRB1*0802 (Homo sapiens, UniProt P01903+P01911, A100R/A103L/A169T/F76Y/H45Y/I96F/K41T/L162R/M171V/P40S/Q125H/Q178H/Q39Y/Q99D/R218S/R42G/S66Y/V115G/W38E); format: binding
DRB1*1302 = DRB1*1302 (Homo sapiens, UniProt P01903+P01911, A100E/A169T/K41T/L162R/M171V/P40S/Q125H/Q178H/Q39Y/Q99D/R42S/S66N/T262R/V115G/W38E/Y61H); format: binding
Sequence of DRB1*1302 (P01903 26-254 limits assumed, other chains not shown): as above

Row | Compound | IC50 (DRB1*1201) | IC50 (DRB1*1101; Binding affinity DRB1 *1101) | IC50 (DRB1*0405) | IC50 (DRB4*0101) | IC50 (DRB1*0901) | IC50 (DRB1*1501) | IC50 (DR7 (DRB1*0701)) | IC50 (DR4w4 (DRB1*0401)) | IC50 (DR1 (DRB1*0101)) | IC50 (DRB5*0101; Binding affinity DRB5 *0101) | IC50 (DRB1*0802) | IC50 (DRB1*1302) | IC50 (DRB1*1101) | IC50 (DRB5*0101)
1 | CC[C@H](C)[C@H](N)C(=O)N[C@@H](CC(C)C)C(=O)N[C@@H](CC(C)C)C(=O)N[C@@H](Cc1c[nH]c2ccccc12)C(=O)N[C@@H](CCC(N)=O)C(=O)N1CCC[C@H]1C(=O)N[C@H](C(=O)N1CCC[C@H]1C(=O)N[C@H](C(=O)N[C@@H](Cc1c[nH]cn1)C(=O)N[C@H](C(=O)N[C@H](C(=O)N1CCC[C@H]1C(=O)N[C@@H](CC(C)C)C(=O)N[C@@H](CO)C(=O)O)C(C)C)[C@@H](C)O)C(C)C)[C@@H](C)CC [68,0038] | 7.29 µM | – | – | – | – | – | – | – | – | – | – | – | – | –
2 | CC[C@H](C)[C@H](NC(=O)[C@H](CCCCN)NC(=O)[C@H](C)NC(=O)[C@@H]1CCCN1C(=O)[C@H](CCC(=O)O)NC(=O)[C@H](CO)NC(=O)[C@H](CC(C)C)NC(=O)[C@H](CCCNC(=N)N)NC(=O)[C@H](CC(C)C)NC(=O)[C@H](CC(C)C)NC(=O)[C@H](CCSC)NC(=O)[C@H](CC(C)C)NC(=O)[C@H](CC(=O)O)NC(=O)[C@@H](N)Cc1c[nH]cn1)C(=O)N[C@H](C(=O)O)[C@@H](C)O [Peptide 68.0011] | 0.084 µM | – | – | – | – | – | – | – | – | – | – | – | – | –
3 | LKRFLQGIPKKNCIL [Peptide 89.0016] | – | 2.54 µM | > 20 µM | 1.7 µM | 7.67 µM | 3.62 µM | > 20 µM | 0.944 µM | 0.069 µM | 0.0055 µM | 3.29 µM | > 20 µM | – | –
4 | GKSYFGMSLISFLQG [Peptide 89.0056] | – | 0.9 µM | 1.23 µM | 1.96 µM | 0.512 µM | 4.79 µM | 0.284 µM | 1.09 µM | 0.17 µM | > 20 µM | 6.02 µM | 1.34 µM | – | –
5 | DIAYKYAQLADVNSN [Peptide 89.0108] | – | 12.6 µM | 2.2 µM | 0.295 µM | 10.6 µM | > 20 µM | 1.02 µM | 0.088 µM | 4.73 µM | 0.15 µM | > 20 µM | > 20 µM | – | –
6 | LVQIKCPPLLITTNI [Peptide 89.0138] | – | – | > 20 µM | 0.018 µM | > 20 µM | > 20 µM | > 20 µM | > 20 µM | > 20 µM | – | > 20 µM | > 20 µM | > 20 µM | > 20 µM
7 | HCTLYTAVSSTWHWT [Peptide 89.0157] | – | > 20 µM | > 20 µM | > 20 µM | > 20 µM | > 20 µM | > 20 µM | 19 µM | 2.89 µM | > 20 µM | > 20 µM | 0.867 µM | – | –
8 | HPQWVLTAAHCLKKN [Peptide 68.0003] | 11.5 µM | – | – | – | – | – | – | – | – | – | – | – | – | –
9 | QQQMFLGTVKIPPTV [Peptide 89.0187] | – | 5.88 µM | 6.33 µM | 1.59 µM | > 20 µM | 1 µM | > 20 µM | 0.07 µM | 0.743 µM | > 20 µM | 7.29 µM | 3.34 µM | – | –
10 | DRGIIILLLIRFRCS [Peptide 89.0062] | – | 8.28 µM | 7.18 µM | 7.56 µM | > 20 µM | 14.4 µM | > 20 µM | > 20 µM | > 20 µM | > 20 µM | 0.085 µM | > 20 µM | – | –
11 | DSQIAFQYAQLADVD [Peptide 89.0130] | – | – | 9.99 µM | 0.014 µM | > 20 µM | > 20 µM | > 20 µM | 3 µM | > 20 µM | – | > 20 µM | > 20 µM | > 20 µM | 17.1 µM
